Reference: US10206937B2, “Boronic acid derivatives and therapeutic uses thereof” (Qpex Biopharma, Inc., priority 2014, dated 2019)

Test system: strains of Enterobacteriaceae producing various carbapenemases (class A, D and B; 104 strains)
Assay: Antibiotics potentiation by Compound 27 (MIC; meropenem, doripenem, ertapenem, cefepime)
Format: cell-based
Settings: + 27 = with Compound 27 at fixed 4 μg/ml

COc1ccc2c(c1C(=O)O)OB(O)C(Sc1nnc(N)s1)C2 (stereo not shown) [M + 27]
MIC (strain KP1081 Klebsiella pneumoniae (NDM-1, TEM-1, SHV-11, CMY-6, CTX-M-15)): X (MIC of less than 1 μg/mL)
MIC (strain KP1082 Klebsiella pneumoniae (KPC-2, SHV-1)): X (MIC of less than 1 μg/mL)
MIC (strain KP1083 Klebsiella pneumoniae (KPC-3, SHV-1, TEM-1)): X (MIC of less than 1 μg/mL)
MIC (strain KP1084 Klebsiella pneumoniae (KPC-3, SHV-11, TEM-1)): Y (MIC of 1 μg/mL to 10 μg/mL)
MIC (strain KP1086 Klebsiella pneumoniae (OXA-48, CTX-M-15, TEM, SHV)): Y (MIC of 1 μg/mL to 10 μg/mL)
MIC (strain KP1087 Klebsiella pneumoniae (KPC-2, CTX-M-15, SHV-11, TEM-1)): Y (MIC of 1 μg/mL to 10 μg/mL)
MIC (strain KP1088 Klebsiella pneumoniae (KPC-3, SHV-11, TEM-1)): X (MIC of less than 1 μg/mL)
MIC (strain KP1089 Klebsiella pneumonias (OXA-181, CTX-M-15, TEM, SHV)): X (MIC of less than 1 μg/mL)
MIC (strain KP1095 Klebsiella pneumoniae (KPC-2 TEM-1 SHV-1)): X (MIC of less than 1 μg/mL)
MIC (strain KP1096 Klebsiella pneumoniae (KPC-2 TEM-181 SHV-11)): X (MIC of less than 1 μg/mL)
MIC (strain KP1097 Klebsiella pneumonias (IMP-1)): X (MIC of less than 1 μg/mL)
MIC (strain KP1098 Klebsiella pneumoniae (IMP-26)): Y (MIC of 1 μg/mL to 10 μg/mL)
MIC (strain KP1104 Klebsiella pneumoniae (KPC TEM)): X (MIC of less than 1 μg/mL)
MIC (strain KP1105 Klebsiella pneumoniae (KPC TEM SHV)): X (MIC of less than 1 μg/mL)
MIC (strain KP1159 Klebsiella pneumoniae (SHV-1(2b); CTX-M-15; IMP-4)): X (MIC of less than 1 μg/mL)
MIC (strain KP1160 Klebsiella pneumoniae (SHV-28(2be); CTX-M-15; IMP-26)): X (MIC of less than 1 μg/mL)
MIC (strain KP1161 Klebsiella pneumoniae (NDM-1)): X (MIC of less than 1 μg/mL)
MIC (strain KP1164 Klebsiella pneumoniae (SHV-12(2be); VIM-1)): X (MIC of less than 1 μg/mL)
MIC (strain KP1165 Klebsiella pneumoniae (SHV-11(2b); CTX-M-15; VIM-27)): Z (MIC of greater than 10 μg/mL)
MIC (strain KP1166 Klebsiella pneumoniae (SHV-5(2be); VIM-26)): Y (MIC of 1 μg/mL to 10 μg/mL)
MIC (strain KP1167 Klebsiella pneumoniae (SHV-12(2be); VIM-1)): X (MIC of less than 1 μg/mL)
MIC (strain KP1169 Klebsiella pneumoniae (SHV-11(2b); VIM-1)): X (MIC of less than 1 μg/mL)
MIC (strain KP1170 Klebsiella pneumoniae (SHV-11(2b); CTX-M-15; NDM-1)): X (MIC of less than 1 μg/mL)
MIC (strain KP1172 Klebsiella pneumoniae (SHV-31(2be); DHA-1; VIM-1)): X (MIC of less than 1 μg/mL)
MIC (strain KP1173 Klebsiella pneumoniae (TEM-33(2br); CTX-M-15; IMP-1)): X (MIC of less than 1 μg/mL)
MIC (strain KP1174 Klebsiella pneumoniae (CTX-M-14; IMP-1)): X (MIC of less than 1 μg/mL)
MIC (strain KP1175 Klebsiella pneumoniae (SHV-OSBL(2b); VIM-1)): X (MIC of less than 1 μg/mL)
MIC (strain KP1177 Klebsiella pneumoniae (SHV-OSBL(2b), TEM-OSBL(2b); CTX-M-15; NDM-1)): X (MIC of less than 1 μg/mL)
MIC (strain KP1178 Klebsiella pneumoniae (SHV-OSBL(2b;) TEM-OSBL(2b); CTX-M-15; NDM-1)): X (MIC of less than 1 μg/mL)
MIC (strain KP1179 Klebsiella pneumoniae (SHV-12(2be), TEM-OSBL(2b); CTX-M-15; NDM-7)): X (MIC of less than 1 μg/mL)
MIC (strain KP1180 Klebsiella pneumoniae (SHV-OSBL(2b), TEM-OSBL(2b); CTX-M-15; DHA-1; IMP-26)): X (MIC of less than 1 μg/mL)
MIC (strain KP1181 Klebsiella pneumoniae (SHV-OSBL(2b); CTX-M-15; IMP-26)): X (MIC of less than 1 μg/mL)
MIC (strain KP1183 Klebsiella pneumoniae (SHV-OSBL(2b), TEM-OSBL(2b); CTX-M-15; NDM-1)): X (MIC of less than 1 μg/mL)
MIC (strain KP1184 Klebsiella pneumoniae (SHV-OSBL(2b); IMP-1)): X (MIC of less than 1 μg/mL)
MIC (strain KP1185 Klebsiella pneumoniae (SHV-OSBL(2b), TEM-OSBL(2b); IMP-4)): Y (MIC of 1 μg/mL to 10 μg/mL)
MIC (strain KP1186 Klebsiella pneumoniae (CTX-M-15; NDM-1)): X (MIC of less than 1 μg/mL)
MIC (strain KP1187 Klebsiella pneumoniae (SHV-55(2be), TEM-OSBL(2b); CTX-M-15; NDM-1)): X (MIC of less than 1 μg/mL)
MIC (strain KP1188 Klebsiella pneumoniae (SHV-OSBL(2b); CTX-M-15; NDM-1)): Y (MIC of 1 μg/mL to 10 μg/mL)
MIC (strain KP1189 Klebsiella pneumoniae (TEM-OSBL(2b); CTX-M-15; CTX-M-27; NDM-1)): X (MIC of less than 1 μg/mL)
MIC (strain KPM1123 Klebsiella pneumoniae (KPC-2 TEM SHV)): X (MIC of less than 1 μg/mL)
MIC (strain KPM1202 Klebsiella pneumoniae (KPC SHV TEM)): X (MIC of less than 1 μg/mL)
MIC (strain KPM1203 Klebsiella pneumoniae (KPC SHV TEM)): X (MIC of less than 1 μg/mL)
MIC (strain KPM1344 Klebsiella pneumoniae (VIM-1)): X (MIC of less than 1 μg/mL)
MIC (strain KPM1345 Klebsiella pneumoniae (VIM-1 SHV)): X (MIC of less than 1 μg/mL)
MIC (strain KPM1347 Klebsiella pneumoniae (NDM-1 SHV CTX-M-15)): X (MIC of less than 1 μg/mL)
MIC (strain KX1017 Klebsiella oxytoca (KPC-2, OXA-2, SHV-30)): X (MIC of less than 1 μg/mL)
MIC (strain KX1018 Klebsiella oxytoca (KPC-2, SHV-40, OXY-1)): X (MIC of less than 1 μg/mL)
MIC (strain KX1019 Klebsiella oxytoca (KPC-2, OXA-2)): X (MIC of less than 1 μg/mL)
MIC (strain PM1024 Proteus mirabilis (TEM-1(2b); CMY-16; VIM-1)): X (MIC of less than 1 μg/mL)
MIC (strain PM1026 Proteus mirabilis (DHA-1; IMP-26)): X (MIC of less than 1 μg/mL)
MIC (strain PM1027 Proteus mirabilis (VIM-5)): X (MIC of less than 1 μg/mL)
MIC (strain SM1023 Serratia marcescens (VIM-4)): Y (MIC of 1 μg/mL to 10 μg/mL)
